We go through one substance from patent US20060111778A1, “Methods of promoting healing of cartilage defects and method of causing stem cells to differentiate by the articular chondrocyte pathway” (priority 2004, published 2006).

The test relates to bone marrow-derived stem cells (MSCs). Briefly: culture of bone marrow-derived stem cells (MSCs) with cartilage fragments, with or without TGF-β1. The format is cell-based, horse. The procedure: Bone marrow aspirates were obtained from the tuber coxae of 3 normal horses (3-years-old) to attain bone marrow-derived stem cells (MSCs). Aspirates were cultured in media, pre-plated for purification, and grown in monolayer culture flasks for 2-3 weeks until a confluent monolayer culture of MSCs was obtained. Confluent monolayers were expanded for another 2-3 weeks until a minimum of 26×10^6 cells were attained.
Cartilage was collected sterilely from the same horses and freeze-thawed 3 times to ensure all native cells within the cartilage were dead. Prior to the start of the experiment the cartilage was placed in liquid nitrogen and pulverized until it became a fine powder. Then the cartilage was weighed into aliquots to make 2.5% and 10% of cartilage weight to volume in media.
A 24-well, non-adherent plate contained treatment groups of 1×10^6 cells only, 1×10^6 cells with 2.5% cartilage, 1×10^6 cells with 10% cartilage, 2.5% cartilage only, and 10% cartilage only to make 5 treatment groups. The cells-only treatment group was the baseline positive control. The 2.5% and 10% cartilage fragments without cells served as the negative controls and, if necessary, for baseline values of proteoglycan and DNA content of the matrix provided. […]

Take “TGF-β1: transforming growth factor β type 1, growth factor supplemented to media at 5 ng/ml”: the “MSC survival and chondrogenesis” value was “necessary”. For the same substance, where the note is “day 14, 5 ng/ml TGF-β1”, the “DNA content by day 14” value is on record as “significantly increasing”.
